Legend:
Acinetobacter baumannii [1] = assay: Bactericidal activity against Acinetobacter baumannii incubated for overnight; assay type: functional
[2] = Hemolytic activity in human RBC at 100 ug/ml incubated for 1 hr; assay type: toxicity, cell-based, Erythrocyte; conditions: human red blood cells (erythrocytes), at 100 µg/mL, read-out: Activity
Staphylococcus aureus = assay: Bactericidal activity against Staphylococcus aureus incubated for overnight; assay type: functional
Klebsiella oxytoca [3] = assay: Bactericidal activity against Klebsiella oxytoca incubated overnight; assay type: functional
Salmonella typhimurium [4] = assay: Antibacterial activity against Salmonella typhimurium incubated for 16 to 20 hrs; assay type: functional; conditions: Salmonella enterica subsp. enterica serovar Typhimurium; time 16-20 hrs
Enterococcus faecalis [5] = assay: Antibacterial activity against Enterococcus faecalis incubated for 16 to 20 hrs; assay type: functional; conditions: time 16-20 hrs
Vibrio alginolyticus [6] = assay: Antibacterial activity against Vibrio alginolyticus incubated for 16 to 20 hrs; assay type: functional; conditions: time 16-20 hrs
Streptococcus iniae [7] = assay: Antibacterial activity against Streptococcus iniae incubated for 16 to 20 hrs; assay type: functional; conditions: time 16-20 hrs
Vibrio vulnificus [8] = assay: Antibacterial activity against Vibrio vulnificus 204 incubated for 16 to 20 hrs; assay type: functional; conditions: time 16-20 hrs
Klebsiella aerogenes [9] = assay: Bactericidal activity against Enterobacter aerogenes incubated overnight; assay type: functional
Streptococcus agalactiae [10] = assay: Antibacterial activity against Streptococcus agalactiae incubated for 16 to 20 hrs; assay type: functional; conditions: time 16-20 hrs
Vibrio vulnificus [11] = assay: Antibacterial activity against Vibrio vulnificus 204 assessed as induction of resistance development by measuring fold increase in MIC measured after 15 passages; assay type: functional
[12] = system: Staphylococcus haemolyticus; assay: Antibacterial activity against Staphylococcus haemolyticus incubated for 16 to 20 hrs; assay type: functional; conditions: time 16-20 hrs
Vibrio anguillarum [13] = assay: Antibacterial activity against Listonella anguillarum incubated for 16 to 20 hrs; assay type: functional; conditions: time 16-20 hrs
Salmonella enterica [14] = assay: Bactericidal activity against Salmonella enterica incubated overnight; assay type: functional
Vibrio vulnificus [15] = assay: Bactericidal activity against Vibrio vulnificus V3 incubated overnight; assay type: functional
Salmonella typhimurium [16] = assay: Bactericidal activity against Salmonella typhimurium incubated overnight; assay type: functional; conditions: Salmonella enterica subsp. enterica serovar Typhimurium
Vibrio vulnificus [17] = assay: Antibacterial activity against Vibrio vulnificus V1 incubated for 16 to 20 hrs; assay type: functional; conditions: time 16-20 hrs
Vibrio vulnificus [18] = assay: Antibacterial activity against Vibrio vulnificus V3 incubated for 16 to 20 hrs; assay type: functional; conditions: time 16-20 hrs
Aeromonas hydrophila [19] = assay: Bactericidal activity against Aeromonas hydrophila incubated overnight; assay type: functional
[20] = system: Staphylococcus haemolyticus; assay: Bactericidal activity against Staphylococcus haemolyticus incubated overnight; assay type: functional
Enterococcus faecium [21] = assay: Antibacterial activity against Enterococcus faecium incubated for 16 to 20 hrs; assay type: functional; conditions: time 16-20 hrs
Edwardsiella tarda [22] = assay: Antibacterial activity against Edwardsiella tarda incubated for 16 to 20 hrs; assay type: functional; conditions: time 16-20 hrs
Nakaseomyces glabratus [23] = assay: Fungicidal activity against Candida glabrata incubated overnight; assay type: functional
Vibrio harveyi [24] = assay: Antibacterial activity against Vibrio harveyi incubated for 16 to 20 hrs; assay type: functional; conditions: time 16-20 hrs
Klebsiella pneumoniae [25] = assay: Bactericidal activity against NDM Klebsiella pneumoniae incubated overnight; assay type: functional
Nakaseomyces glabratus [26] = assay: Antifungal activity against Candida glabrata incubated for 16 to 20 hrs; assay type: functional; conditions: time 16-20 hrs
Edwardsiella tarda [27] = assay: Bactericidal activity against Edwardsiella tarda incubated overnight; assay type: functional
Escherichia coli [28] = assay: Bactericidal activity against Escherichia coli incubated overnight; assay type: functional
Klebsiella pneumoniae [29] = assay: Antibacterial activity against NDM Klebsiella pneumoniae incubated for 16 to 20 hrs; assay type: functional; conditions: time 16-20 hrs
Klebsiella oxytoca [30] = assay: Antibacterial activity against Klebsiella oxytoca incubated for 16 to 20 hrs; assay type: functional; conditions: time 16-20 hrs
Vibrio anguillarum [31] = assay: Bactericidal activity against Listonella anguillarum incubated overnight; assay type: functional
Vibrio alginolyticus [32] = assay: Bactericidal activity against Vibrio alginolyticus incubated overnight; assay type: functional
Candida tropicalis [33] = assay: Antifungal activity against Candida tropicalis incubated for 16 to 20 hrs; assay type: functional; conditions: time 16-20 hrs
Pseudomonas aeruginosa [34] = assay: Bactericidal activity against Pseudomonas aeruginosa incubated overnight; assay type: functional
Escherichia coli [35] = assay: Antibacterial activity against Escherichia coli incubated for 16 to 20 hrs; assay type: functional; conditions: time 16-20 hrs
Aeromonas hydrophila [36] = assay: Antibacterial activity against Aeromonas hydrophila incubated for 16 to 20 hrs; assay type: functional; conditions: time 16-20 hrs
Enterococcus faecalis [37] = assay: Bactericidal activity against Enterococcus faecalis incubated overnight; assay type: functional
Vibrio vulnificus [38] = assay: Antibacterial activity against Vibrio vulnificus V2 incubated for 16 to 20 hrs; assay type: functional; conditions: time 16-20 hrs
Vibrio vulnificus [39] = assay: Bactericidal activity against Vibrio vulnificus 204 incubated overnight; assay type: functional
Vibrio vulnificus [40] = assay: Bactericidal activity against Vibrio vulnificus V2 incubated overnight; assay type: functional
Enterococcus faecium [41] = assay: Bactericidal activity against Enterococcus faecium incubated overnight; assay type: functional
Klebsiella aerogenes [42] = assay: Antibacterial activity against Enterobacter aerogenes incubated for 16 to 20 hrs; assay type: functional; conditions: time 16-20 hrs
Pseudomonas aeruginosa [43] = assay: Antibacterial activity against Pseudomonas aeruginosa incubated for 16 to 20 hrs; assay type: functional; conditions: time 16-20 hrs
Salmonella enterica [44] = assay: Antibacterial activity against Salmonella enterica incubated for 16 to 20 hrs; assay type: functional; conditions: time 16-20 hrs
Vibrio harveyi [45] = assay: Bactericidal activity against Vibrio harveyi incubated overnight; assay type: functional
Streptococcus agalactiae [46] = assay: Bactericidal activity against Streptococcus agalactiae incubated overnight; assay type: functional
Vibrio vulnificus [47] = assay: Bactericidal activity against Vibrio vulnificus V1 incubated overnight; assay type: functional
Candida tropicalis [48] = assay: Fungicidal activity against Candida tropicalis incubated overnight; assay type: functional
Streptococcus iniae [49] = assay: Bactericidal activity against Streptococcus iniae incubated overnight; assay type: functional
Acinetobacter baumannii [50] = assay: Antibacterial activity against Acinetobacter baumannii; assay type: functional

H-GKCIWKAIFKGAKKFLKKLVNP-OH
72.4%: hemolysis at 1 h, 100 ug/ml [2]
50 µg/mL: MBC (Staphylococcus aureus)
1.56 µg/mL: MBC (Acinetobacter baumannii [1])

H-GKCIAKAIFKGAKKLLKKLVNP-OH
25.8%: hemolysis at 1 h, 100 ug/ml [2]
100 µg/mL: MBC (Staphylococcus aureus)
3.12 µg/mL: MBC (Acinetobacter baumannii [1])

COLISTIN
16: fold change (FC) (Vibrio vulnificus [11])
< 1.56 µg/mL: MIC (Salmonella typhimurium [4]) | MIC (Enterococcus faecalis [5]) | MBC (Klebsiella aerogenes [9]) | MIC (Vibrio anguillarum [13]) | MBC (Salmonella enterica [14]) | MBC (Salmonella typhimurium [16]) | MBC (Klebsiella pneumoniae [25]) | MBC (Escherichia coli [28]) | MIC (Klebsiella pneumoniae [29]) | MBC (Pseudomonas aeruginosa [34]) | MIC (Escherichia coli [35]) | MIC (Klebsiella aerogenes [42]) | MIC (Pseudomonas aeruginosa [43]) | MIC (Salmonella enterica [44])
> 100 µg/mL: MBC (Aeromonas hydrophila [19]) | MIC (Enterococcus faecium [21]) | MFC (Nakaseomyces glabratus [23]) | MIC (Vibrio harveyi [24]) | MIC (Nakaseomyces glabratus [26]) | MBC (Vibrio vulnificus [39]) | MBC (Enterococcus faecium [41]) | MBC (Vibrio harveyi [45])
6.25 µg/mL: MIC (Edwardsiella tarda [22]) | MBC (Edwardsiella tarda [27]) | MBC (Vibrio anguillarum [31])
3.12 µg/mL: MIC (Vibrio alginolyticus [6]) | MIC [12] | MBC [20] | MBC (Vibrio alginolyticus [32])
25 µg/mL: MIC (Vibrio vulnificus [8]) | MBC (Streptococcus iniae [49])
50 µg/mL: MIC (Streptococcus agalactiae [10]) | MBC (Vibrio vulnificus [15]) | MIC (Vibrio vulnificus [17]) | MIC (Vibrio vulnificus [18]) | MBC (Enterococcus faecalis [37]) | MIC (Vibrio vulnificus [38]) | MBC (Vibrio vulnificus [40]) | MBC (Streptococcus agalactiae [46]) | MBC (Vibrio vulnificus [47])
12.5 µg/mL: MBC (Klebsiella oxytoca [3]) | MIC (Streptococcus iniae [7]) | MIC (Klebsiella oxytoca [30]) | MIC (Candida tropicalis [33]) | MFC (Candida tropicalis [48])
100 µg/mL: MIC (Aeromonas hydrophila [36])

C[C@@H](O)[C@H]1C(=O)N2C(C(=O)O)=C(S[C@@H]3CN[C@H](C(=O)N(C)C)C3)[C@H](C)[C@H]12 [MEROPENEM]
200 µg/mL: MIC (Klebsiella pneumoniae [29])
0.012 µg/mL: MIC (Escherichia coli [35])
0.39 µg/mL: MIC (Streptococcus iniae [7]) | MIC (Acinetobacter baumannii [50]) | MIC (Pseudomonas aeruginosa [43])
0.024 µg/mL: MIC (Vibrio vulnificus [8]) | MIC (Streptococcus agalactiae [10]) | MIC (Klebsiella aerogenes [42])

H-FKWKSVLKIVDIFVDIYF-OH
> 100 µg/mL: MBC (Acinetobacter baumannii [1]) | MBC (Staphylococcus aureus)
67.8%: hemolysis at 1 h, 100 ug/ml [2]
